US11065194B2, “Cosmetic use of extracts of Salvia miltiorrhiza roots, special extracts of Salvia miltiorrhiza roots and cosmetic compositions containing such extracts” (SOCIETE INDUSTRIELLE LIMOUSINE D'APPLICATION BIOLOGIQUE, priority 2018, dated 2021)
Marks after values point to notes of the source that are not given here.

Columns and labels:
[1] = molecular target: T1, TRPV1 receptors of human sensory neurons (Homo sapiens, UniProt Q8NER1); assay: Inhibition of TRPV1 receptors of sensory neurons activated by capsaicin (cytoplasmic calcium, Fluo-4 probe); assay type: cell-based; conditions: tested at 10 μM
T1 construct: endogenous in cells; host or cells: human sensory neurons derived from hiPS cells, in co-culture with normal human keratinocytes
Procedure: The aim of this study is to evaluate the capacity of an extract of Salvia miltiorrhiza roots to inhibit the activity of TRPV1 (Transient receptor potential vanilloid 1) receptors of human sensory neurons that play a major role in the detection and transmission of sensations of pain and itching to the central nervous system.
This study was performed on a model of human sensory neurons derived from hiPS cells (human-induced Pluripotent Stem Cells) in co-culture with human keratinocytes. The activation of TRPV1 receptors is characterized by a massive entry of calcium into the cytoplasm of the sensory neurons that can be captured by a fluorescent probe and analyzed by epifluorescence microscopy.
The operating protocol is described below: • D0, culture of sensory neurons derived from hiPS cells: • The hiPS (human-induced Pluripotent Stem) cells are seeded in a culture medium and incubated at 37° C. • D14, placed in co-culture with normal human keratinocytes: • Some human keratinocytes are seeded onto the carpet of sensory neurons. […] This entry of calcium is captured by the Fluo-4 probe, causing an increase in the level of fluorescence in the neurons. The greater the increase in the level of fluorescence, the more the TRPV1 receptors are activated.
The average of the increase in the level of fluorescence was compared in percentage terms to the non-activated control condition.

[2] = test system: COX-2; assay: Synthesis of COX-2 on SILABSKIN REs treated with fine particles (PM), immunohistochemistry; assay type: cell-based, human; conditions: tested at 1 μM
Source text: The purpose of this study is to evaluate the capacity of an extract of Salvia miltiorrhiza roots to limit the synthesis of cyclo-oxygenase 2 (COX-2) in the event of an inflammation caused by a pollutant (fine particles: PM).
The expression of COX-2 has been evaluated by immunohistochemistry on SILABSKIN® REs subjected to repeated treatments with fine particles (PM) in order to mimic a polluted environment.
Human keratinocytes were cultivated in a specific culture medium • D0: • Normal human keratinocytes were seeded on inserts then incubated at 37° C. in an atmosphere containing 5% CO2. • D2 to D13: • The culture medium was changed every 2 days. • D14 and D15, treatments of SILABSKIN® REs: • SILABSKIN® REs were treated topically with a solution of fine particles (PM), with or without the presence of the extract of Example 1 at 0.25% (V/V), or with capsazepine at […]. • D16: • The SILABSKIN® REs were recovered, fixed, dehydrated and embedded in paraffin. Sections (4 μm) were then cut using a microtome (RM2125RT, Leica).
B. Analysis of the Expression of COX-2 by Immunohistochemical Marking • Removal of paraffin with xylene • Unmasking the antigenic sites • Saturation • Primary antibody: rabbit monoclonal anti-COX-2 antibody • Secondary antibody: coupled Alexa Fluor® 488 […] antibody
The expression of COX-2 was proportional to the intensity of the green fluorescence present on the SILABSKIN® REs. A quantitative analysis of the images was performed with the aid of Matlab® version R2012b (MathWorks) software. The results were expressed in arbitrary units (UA).

[3] = test system: PGE2; assay: Secretion of PGE2 by human keratinocytes treated with fine particles (PM), ELISA; assay type: cell-based; conditions: tested at 0.5 μM
Procedure: The purpose of this study is to evaluate the capacity of an extract of Salvia miltiorrhiza roots to limit the secretion of prostaglandins E2 (PGE2) in the event of an inflammation caused by a pollutant (fine particles: PM).
This study was performed by ELISA assay on the culture supernatant of human keratinocytes subjected to a treatment with fine particles (PM) mimicking a polluted environment.
The operating protocol of the study is described below. • D0:
Normal human keratinocytes were seeded in a culture medium and incubated at 37° C. in an atmosphere containing 5% CO2. • D2: • Pre-treatment:
The keratinocytes were pretreated with or without the extract of Example 1 at 0.025% and 0.05% (V/V) or with capsazepine at 0.5 μM (inhibitor of TRPV1). The cells were then incubated for 30 minutes at 37° C. in an atmosphere containing 5% CO2. • Treatment with fine particles (PM):
The keratinocytes were treated with a solution of particles.
The cells were then incubated for 24 hours at 37° C. in an atmosphere containing 5% CO2. • D3, recovery of supernatants:
The culture supernatants were recovered and the PGE2s were assayed using an ELISA Kit (Enzo Life Sciences).
The test of Study II.2 on the secretion of PGE2 was performed on the extract and on Fraction A.

T1 sequence (Q8NER1 whole entry): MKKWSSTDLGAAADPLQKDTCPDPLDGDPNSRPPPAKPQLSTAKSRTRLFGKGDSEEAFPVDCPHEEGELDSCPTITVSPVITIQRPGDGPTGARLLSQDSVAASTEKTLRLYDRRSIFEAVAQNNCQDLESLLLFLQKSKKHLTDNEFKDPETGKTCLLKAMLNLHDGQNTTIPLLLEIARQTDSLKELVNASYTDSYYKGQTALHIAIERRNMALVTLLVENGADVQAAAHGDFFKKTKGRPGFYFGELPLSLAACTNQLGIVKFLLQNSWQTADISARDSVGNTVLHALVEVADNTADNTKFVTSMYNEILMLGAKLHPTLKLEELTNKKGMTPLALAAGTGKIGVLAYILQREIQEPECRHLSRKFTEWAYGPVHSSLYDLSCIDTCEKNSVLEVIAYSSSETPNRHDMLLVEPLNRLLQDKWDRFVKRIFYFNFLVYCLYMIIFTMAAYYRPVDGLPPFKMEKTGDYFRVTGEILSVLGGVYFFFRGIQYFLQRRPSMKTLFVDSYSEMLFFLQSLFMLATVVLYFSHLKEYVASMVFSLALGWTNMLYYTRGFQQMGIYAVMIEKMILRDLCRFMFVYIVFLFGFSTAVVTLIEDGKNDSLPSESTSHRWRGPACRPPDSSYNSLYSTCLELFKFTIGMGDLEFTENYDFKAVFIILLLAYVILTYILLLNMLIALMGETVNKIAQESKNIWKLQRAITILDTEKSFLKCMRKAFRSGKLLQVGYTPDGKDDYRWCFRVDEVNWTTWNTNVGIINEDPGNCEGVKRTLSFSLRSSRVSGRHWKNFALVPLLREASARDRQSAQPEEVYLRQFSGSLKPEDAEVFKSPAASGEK

inhibition at 10 µM ([1]; capsaicin 10 μM, read-out: Inhibition of TRPV1 receptors/activated control neurons): 199% | Mobilization of cytoplasmic calcium ([1]; neurons activated by capsaicin 10 μM, non-activated control = 100): 131*** %
Compound: Oc1cc2c(cc1O)CN(C(=S)NCCc1ccc(Cl)cc1)CCC2 [Capsazepine, capsazepine]
Inhibition of the PM-caused increase in expression of COX-2 [2]: 38% | Synthesis of COX-2/polluted control [2]: −38% | Synthesis of COX-2 ([2]; polluted SILABSKIN REs (PM)): 659* ×10^3 UA | inhibition at 0.5 µM ([3]; Homo sapiens, Keratinocyte, read-out: Inhibition of the PM-caused increase in secretion of PGE2): 78% | PGE2 Content/PM-treated control [3]: −78% | PGE2 Content ([3]; keratinocytes treated with PMs): 433* pg/mg of proteins
